Reference: the supplement of paper PMC10307832

Tests used:
Experiment in all cases: relative viability (nuclei count vs DMSO), 5 days (fraction); higher = more cells survive
[1] = compound: COc1cc2nc(N3CCCN(C)CC3)nc(NC3CCN(Cc4ccccc4)CC3)c2cc1OC + CS(=O)(=O)CCNCc1ccc(-c2ccc3ncnc(Nc4ccc(OCc5cccc(F)c5)c(Cl)c4)c3c2)o1 [Lapatinib] (partner 2 µM)
In short: (§1)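 Nuclei were stained with Hoechst during a one-step fixation (final 0.05% Triton X-100, 1% formaldehyde, 1 ug/ml Hoechst) carried out 5 days after dosing, then counted on 4× images. The cells, lung cancer lines in 1536-well plates, had been dosed by pin tool the day after seeding with one drug alone or a fixed anchor-drug dose plus five library-drug doses (not always all listed) in √10 steps. Relative viability is the nuclei count in treated wells divided by that in vehicle wells, and each value is the median of duplicate plates.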

AZD6482 + Crizotinib = compound: Cc1cc([C@@H](C)Nc2ccccc2C(=O)O)c2nc(N3CCOCC3)cc(=O)n2c1 [AZD6482] + C[C@@H](Oc1cc(-c2cnn(C3CCNCC3)c2)cnc1N)c1c(Cl)ccc(F)c1Cl [Crizotinib] (partner 1 µM)
In short: as §1

AZD6482 + Decitabine = compound: Cc1cc([C@@H](C)Nc2ccccc2C(=O)O)c2nc(N3CCOCC3)cc(=O)n2c1 [AZD6482] + Nc1ncn([C@H]2C[C@H](O)[C@@H](CO)O2)c(=O)n1 [Decitabine] (partner 2 µM)
In short: as §1

AZD6482 + Olaparib = compound: Cc1cc([C@@H](C)Nc2ccccc2C(=O)O)c2nc(N3CCOCC3)cc(=O)n2c1 [AZD6482] + O=C(c1cc(Cc2n[nH]c(=O)c3ccccc23)ccc1F)N1CCN(C(=O)C2CC2)CC1 [Olaparib] (partner 8 µM)
In short: as §1

Cell Line | relative viability ([1]; first compound 0.2 µM) | relative viability ([1]; first compound 0.6325 µM) | relative viability ([1]; first compound 2 µM) | relative viability ([1]; first compound 6.325 µM) | relative viability (AZD6482 + Crizotinib; first compound 0.08 µM) | relative viability (AZD6482 + Crizotinib; first compound 0.253 µM) | relative viability (AZD6482 + Crizotinib; first compound 0.8 µM) | relative viability (AZD6482 + Crizotinib; first compound 2.53 µM) | relative viability (AZD6482 + Crizotinib; first compound 8 µM) | relative viability (AZD6482 + Decitabine; first compound 0.08 µM) | relative viability (AZD6482 + Decitabine; first compound 0.253 µM) | relative viability (AZD6482 + Decitabine; first compound 0.8 µM) | relative viability (AZD6482 + Decitabine; first compound 2.53 µM) | relative viability (AZD6482 + Decitabine; first compound 8 µM) | relative viability (AZD6482 + Olaparib; first compound 0.08 µM) | relative viability (AZD6482 + Olaparib; first compound 0.253 µM) | relative viability (AZD6482 + Olaparib; first compound 0.8 µM) | relative viability (AZD6482 + Olaparib; first compound 2.53 µM) | relative viability (AZD6482 + Olaparib; first compound 8 µM)
NCI-H1651 | 0.785 | 0.807 | 0.834 | 0.855 | 0.816 | 0.857 | 0.874 | 0.835 | 0.729 | 0.627 | 0.429 | 0.572 | 0.446 | 0.482 | 0.174 | 0.198 | 0.197 | 0.201 | 0.187
NCI-H1666 | 0.508 | 0.746 | 0.475 | 0.332 | 0.84 | 1.11 | 0.823 | 0.712 | 0.989 | 0.72 | 0.687 | 0.715 | 0.645 | 0.642 | 0.731 | 0.722 | 0.777 | 0.712 | 0.773
NCI-H1734 | 1.11 | 0.977 | 1.06 | 0.76 | 0.627 | 0.733 | 0.622 | 0.47 | 0.471 | 0.508 | 0.476 | 0.463 | 0.407 | 0.435 | 0.509 | 0.538 | 0.531 | 0.365 | 0.509
NCI-H1755 | 1.03 | 1.02 | 1.06 | 0.927 | 0.717 | 0.769 | 0.704 | 0.545 | 0.487 | 0.709 | 0.733 | 0.749 | 0.668 | 0.6 | 0.839 | 0.755 | 0.769 | 0.583 | 0.601
NCI-H1792 | 0.953 | 0.893 | 0.94 | 1.02 | 0.909 | 0.828 | 0.983 | 0.717 | 0.444 | 0.519 | 0.479 | 0.549 | 0.356 | 0.476 | 0.151 | 0.345 | 0.365 | 0.234 | 0.138
NCI-H1915 | 1.01 | 0.875 | 1.02 | 0.956 | 0.845 | 0.8 | 0.935 | 0.838 | 0.863 | 0.278 | 0.255 | 0.263 | 0.247 | 0.23 | 0.266 | 0.268 | 0.276 | 0.236 | 0.258
NCI-H1944 | 0.778 | 0.961 |  | 0.762 | 1.01 | 1.07 | 1.12 | 0.836 | 0.792 | 0.446 | 0.37 | 0.521 | 0.446 | 0.435 | 0.399 | 0.443 | 0.428 | 0.337 | 0.388
NCI-H1975 | 0.93 | 0.968 | 1.01 | 0.881 | 0.841 | 0.908 | 1.03 | 0.737 | 0.764 | 0.351 | 0.392 | 0.385 | 0.354 | 0.345 | 0.661 | 0.832 | 0.964 | 0.648 | 0.624
NCI-H1993 | 0.684 | 0.907 | 0.834 | 0.751 | 0.671 | 0.74 |  |  | 0.764 | 0.526 | 0.481 | 0.598 | 0.436 | 0.458 | 0.881 | 0.997 | 0.95 | 0.563 | 0.665
NCI-H2009 | 0.871 | 0.888 | 1.08 | 0.901 | 0.884 | 1.03 | 1.05 | 0.693 | 0.813 | 0.387 | 0.373 | 0.361 | 0.321 | 0.342 | 0.597 | 0.683 | 0.703 | 0.452 | 0.619
NCI-H2023 | 0.87 | 0.836 | 0.961 | 0.115 | 0.535 | 0.615 | 0.509 | 0.411 | 0.494 | 0.226 | 0.185 | 0.214 | 0.269 | 0.179 | 0.496 | 0.457 | 0.43 | 0.353 | 0.379
NCI-H2085 | 0.698 | 0.772 | 0.798 | 0.605 | 0.818 | 0.537 | 0.519 | 0.316 | 0.358 | 0.485 | 0.456 | 0.471 | 0.357 | 0.403 | 0.632 | 0.358 | 0.45 | 0.36 | 0.303
NCI-H2087 | 1.18 | 0.744 | 1.08 | 0.964 | 0.805 | 0.93 | 0.997 | 0.827 | 0.984 | 0.245 | 0.232 | 0.266 | 0.208 | 0.215 | 0.578 | 0.587 | 0.523 | 0.345 | 0.519
NCI-H2126 | 0.74 | 0.742 | 0.796 | 0.732 | 0.954 | 0.987 | 1.01 | 0.787 | 0.777 | 0.56 | 0.565 | 0.49 | 0.494 | 0.465 | 0.877 | 0.904 | 0.867 | 0.615 | 0.57
NCI-H2170 | 0.253 | 0.28 | 0.254 | 0.272 | 1.11 | 1.15 | 1.23 | 1.05 | 0.851 | 0.427 | 0.443 | 0.432 | 0.423 | 0.442 | 0.536 | 0.608 | 0.511 | 0.542 | 0.489
NCI-H2347 | 0.901 | 1.01 | 0.954 | 0.911 |  | 0.609 | 0.581 | 0.425 | 0.498 | 0.474 | 0.565 | 0.555 | 0.52 | 0.449 | 0.449 | 0.536 | 0.496 | 0.432 | 0.432
NCI-H2405 | 1.08 | 1.08 | 1.2 | 0.885 | 0.577 | 0.772 | 0.893 | 0.587 | 0.546 | 0.641 | 0.666 | 0.732 | 0.447 | 0.541 | 0.599 | 0.861 | 0.929 | 0.541 | 0.677
NCI-H3122 | 1.07 | 1.01 | 1.01 | 1.01 | 0.243 | 0.285 | 0.27 | 0.212 | 0.25 | 0.474 | 0.393 | 0.389 | 0.277 | 0.298 | 0.608 | 0.729 | 0.657 | 0.585 | 0.616
PC-3 [JPC-3] | 0.481 | 0.424 | 0.438 | 0.468 | 0.926 | 0.988 | 0.952 | 0.862 | 1.02 | 0.775 | 0.827 | 0.773 | 0.714 | 0.751 | 1.02 | 1.11 | 1.08 | 0.801 | 1.15
PC-14 | 0.334 | 0.339 | 0.372 | 0.308 | 0.826 | 0.896 | 0.904 | 0.783 | 0.876 | 0.225 | 0.174 | 0.273 | 0.315 | 0.271 | 0.247 | 0.337 | 0.405 | 0.308 | 0.36
RERF-LC-KJ | 0.832 | 0.863 | 0.875 | 0.829 | 0.745 | 0.776 | 0.832 | 0.818 | 0.676 | 0.722 | 0.78 | 0.601 | 0.592 | 0.665 | 0.787 | 0.963 | 0.886 | 0.963 | 0.667
SK-LU-1 | 0.818 | 0.754 | 1 | 0.839 |  | 0.908 | 0.931 | 0.696 | 0.886 |  | 0.567 | 0.627 | 0.549 | 0.425 |  | 0.452 | 0.474 | 0.405 | 0.359
SK-MES-1 | 0.476 | 0.433 | 0.539 | 0.483 | 0.854 | 0.838 | 0.86 | 0.419 | 0.439 | 0.331 | 0.279 | 0.396 | 0.28 | 0.275 | 0.457 | 0.598 | 0.529 | 0.305 | 0.336
SW 1573 | 1.15 | 1.07 | 1.26 | 1.05 | 0.781 | 0.696 | 0.733 | 0.548 | 0.466 | 0.545 | 0.449 | 0.434 | 0.332 | 0.454 | 0.478 | 0.4 | 0.486 | 0.401 | 0.369
UMC-11 | 0.93 | 1.12 | 1.03 | 0.656 | 0.505 | 0.578 | 0.628 | 0.516 | 0.511 | 0.623 | 0.584 | 0.606 |  | 0.613 | 0.738 | 0.358 | 0.357 | 0.345 | 0.338
